Literature values as cited in patent publication US10548835B2, “Methods of reducing the signs of skin aging” (Kimberly-Clark Worldwide, Inc., priority 2014, dated 2020).

System: 3T3-L1 cells
Details: literature

Fucoidan
adipogenesis (adipocyte differentiation): inhibit adipogenesis
